Experimental data taken from patent US6469063B1, “Inhibition of inflammation via inhibition of COX-2 gene transcription” (City of Hope, priority 1999, dated 2002).
Several values for one entry are separate records, joined by “and”; a condition that tells them apart may be missing. Equal values may be shown once. Entries after “also recorded” stand apart in the source; their conditions may differ.

Experiments:
[1] = system: COX-2 protein; assay: Western immunoblot of COX-2 protein expression in RIN m5F cells; format: cell-based, rat; conditions: 12-HETE 1-10 nM, 24 hours; for increase in COX-2 protein: IL-1β 0.3 ng/ml
Method: (§1) RIN m5F cells were cultured to near confluence in RPMi-1640 medium (Life Technologies, Inc., Grand Island, N.Y.) plus 10% FCS plus 1% HEPES and penicillin/streptomycin. Prior to addition of IL-1β the cells were depleted in RPMI-1640 medium plus 0.2% BSA for 24 hours. The cells were gently washed in PBS and depletion medium was added back. At this time CDC (Biomol Research Lab, Inc., Plymouth Meeting, PA) (1-10 μM) was added in certain experiments 60 minutes prior to IL-1β addition. 12-HETE (1-100 nM) and 15-HETE (1-100 nM) (Biomol Research Lab, Inc., Plymouth Meeting, Pa.) were added to certain experiments in 0.1% ethanol. The cells were cultured for an additional 24 hours at which time medium was collected for PGE2 assay. For mRNA experiments, total RNA was extracted from RIN m5F cells 3 hours after the addition of IL-1 β, 12-HETE, or 15-HETE. 12HETE and 15-HETE were stored at −70 C. in the dark and added to cell culture dishes in the dark. Control experiments included the addition of 0.1% ethanol alone to RIN m5F cell cultures.
This Example investigates the mechanism(s) of this resistance. RIN m5F cells, cultured as set forth in Example 1, were stimulated with IL-1β and 12-HETE and total protein extracts were used for Western immunoblotting with an anti-COX-2 antibody.
The RIN m5F cells (−300 per blot) were lysed in a 1% Triton-0.1% SDS buffer in normal saline (pH 7.4) with 10 mM HEPES plus 1 mM EDTA and standard protease inhibitors. Cell lysates were centrifuged at 14,000×9 for 10 minutes and a modified BCA protein assay was performed. Protein aliquots (50 μg per sample) were treated with Laemmeli sample buffer and then heated to 100° C. for 5 minutes. Proteins were separated on 10% SDS-PAGE and transferred to polyvinylidene difluoride membranes (Immobilon-P) in 10 mM CAPS buffer, 10% methanol at pH 11. The immunoblots were blocked overnight in 5% nonfat dried milk in Tris buffer containing 0.1% Tween-20. […]

[2] = system: COX-1 mRNA; assay: Semi-quantitative RT-PCR of COX-1 gene expression in RIN m5F cells; format: cell-based, rat; conditions: same experiments as COX-2 mRNA
Method: as §1
(§2) RIN m5F cells were cultured as set forth in Example 1, in the presence or absence of IL-1β (0.3 ng/ml), 12-S-HETE (1-100 nM), or 15-S-HETE (1-100 nM) for […]. Total RNA was extracted and semiquantitative RT-PCR was performed using COX-2 specific primers.
Total RNA was extracted from RIN m5F cells with RNA STAT-60 (Tel-Test, Inc., Friendswood, Tex.). RNA (1 μg) was diluted in 12.5 μl DEPC-H20 and reverse transcribed with the 1st-Strand™ cDNA Synthesis Kit (CLONTECH laboratories, Inc., Palo Alto, Calif.), using oligo dT primers, recombinant RNase inhibitor, and MMLV reverse transcriptase to generate template cDNA for PCR amplification. Each PCR reaction was done on RNA from one 100 mm culture dish for the stated experimental conditions. Twenty picomoles of each primer (shown below) was mixed with 1 unit of Taq gold polymerase (Perkin Elmer, Inc.) in 50 μl final volume. […]
PCR products were analyzed by electrophoresis with 1.8% agarose gel. […]

[3] = system: PGE2 production (COX-2 activity); assay: PGE2 production in RIN m5F cells (RIA of conditioned medium); format: cell-based, rat; conditions: for PGE2 production in conditioned medium: 24 hours after addition of agent
Method: as §1
In addition, PGE2 production was measured under the same conditions, but over a 24 hour period. COX-2 activity was determined by measuring the accumulation of PGE2 in the conditioned media. Cells were cultured in 24 well plates for 24 hours and subject to the experimental conditions described above. PGE2 was measured in conditioned medium using a commercial RIA kit. Statistical analysis of PGE2 levels was performed using the Student's t-test with GraphPad Prism™ software (GraphPad Software, Inc, San Diego, Calif.).

[4] = system: COX-2 mRNA; assay: Semi-quantitative RT-PCR of COX-2 gene expression in RIN m5F cells; format: cell-based, rat; conditions: IL-1β 0.3 ng/ml, HETEs 1-100 nM
Method: as §1, §2
Total RNA was extracted from RIN m5F cells with RNA STAT-60 (Tel-Test, Inc., Friendswood, Tex.). RNA (1 μg) was diluted in 12.5 μl DEPC-H20 and reverse transcribed with the 1st-Strand™ cDNA Synthesis Kit (CLONTECH laboratories, Inc., Palo Alto, Calif.), using oligo dT primers, recombinant RNase inhibitor, and MMLV reverse transcriptase to generate template cDNA for PCR amplification. Each PCR reaction was done on RNA from one 100 mm culture dish for the stated experimental conditions. Twenty picomoles of each primer (shown below) was mixed with 1 unit of Taq gold polymerase (Perkin Elmer, Inc.) in 50 μl final volume. Samples were amplified with an initial 45 second denaturation step at 94° C. followed by 25 cycles of 45 seconds at 60° C., and 25 cycles of 2 minutes at 72° C.. The last cycle was extended for an additional 7 minutes at 72° C. PCR cycling was done with a Gene Amp PCR System 2400 (Perkin Elmer/Cetus Corp., Norwalk, Conn.). DNA primers were synthesized in the DNA/RNA Core Chemistry Laboratory at City of Hope National Medical Center. The sequences of the primers are shown below.
PCR products were analyzed by electrophoresis with 1.8% agarose gel. The DNA was transferred to nylon membranes and hybridized sequentially to ^32P-labeled probes for COX-1, COX-2, and GAPDH using a random Primed DNA labeling kit (Boehringer Mannheim). GAPDH was used as an internal control. Hybridization and autoradiography were performed according to previously published methods.

[5] = system: COX-2 gene transcription; conditions: higher concentrations; cited from earlier work
[6] = system: prostaglandin synthesis; conditions: 10-100 mg/kg; cited from earlier work
[7] = molecular target: T1, 5-lipoxygenase (Homo sapiens, UniProt P09917); conditions: cited from earlier work
T1 sequence (P09917 1-674): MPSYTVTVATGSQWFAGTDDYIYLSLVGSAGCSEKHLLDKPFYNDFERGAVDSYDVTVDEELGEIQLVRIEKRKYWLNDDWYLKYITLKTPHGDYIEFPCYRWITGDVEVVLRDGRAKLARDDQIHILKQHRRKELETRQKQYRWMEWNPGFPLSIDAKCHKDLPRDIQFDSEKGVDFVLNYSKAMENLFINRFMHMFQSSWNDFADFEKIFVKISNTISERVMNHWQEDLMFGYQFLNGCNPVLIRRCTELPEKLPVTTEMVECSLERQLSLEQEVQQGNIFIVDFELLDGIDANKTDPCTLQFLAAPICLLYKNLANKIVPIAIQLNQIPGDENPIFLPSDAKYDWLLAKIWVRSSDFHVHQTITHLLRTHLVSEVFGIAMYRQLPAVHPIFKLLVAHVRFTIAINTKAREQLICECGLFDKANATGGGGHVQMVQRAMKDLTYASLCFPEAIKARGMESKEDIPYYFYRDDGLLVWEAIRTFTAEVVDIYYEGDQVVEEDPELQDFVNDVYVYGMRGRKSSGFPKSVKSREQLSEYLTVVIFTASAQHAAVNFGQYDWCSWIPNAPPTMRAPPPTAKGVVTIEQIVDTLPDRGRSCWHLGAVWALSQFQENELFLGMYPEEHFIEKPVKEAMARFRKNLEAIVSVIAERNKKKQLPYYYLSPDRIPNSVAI

[8] = system: COX-2 protein; assay: Western immunoblot of COX-2 protein in cultured intact porcine pancreatic islets; format: cell-based; conditions: 24 hours
Method: The RIN m5F cells (−300 per blot) were lysed in a 1% Triton-0.1% SDS buffer in normal saline (pH 7.4) with 10 mM HEPES plus 1 mM EDTA and standard protease inhibitors. Cell lysates were centrifuged at 14,000×9 for 10 minutes and a modified BCA protein assay was performed. Protein aliquots (50 μg per sample) were treated with Laemmeli sample buffer and then heated to 100° C. for 5 minutes. Proteins were separated on 10% SDS-PAGE and transferred to polyvinylidene difluoride membranes (Immobilon-P) in 10 mM CAPS buffer, 10% methanol at pH 11. The immunoblots were blocked overnight in 5% nonfat dried milk in Tris buffer containing 0.1% Tween-20. The blots were incubated for 2 hours at room temperature with anti COX-2 antibodies (Cayman Chemical Co., Ann Arbor, Mich.) diluted 1:2000 in the same Tris buffer without nonfat dried milk. The blots were washed and then incubated with horseradish peroxidase conjugated secondary antibodies at 1:2000 dilution. The protein bands were visualized with enhanced chemiluminescence reagents using X-AR film.
Next, Western immunoblots were performed on protein extracts from porcine islets treated in a similar fashion with IL-1β and lysed as set forth about for RIN m5F cells. Because of the concern that 12-HETE would not permeate the islet mass, the 12-LO inhibitor CDC (1 μM) was used instead with or without the addition of IL-1β, in order to determine the role of the 12-LO pathway on COX-2 protein expression.

[9] = molecular target: 15-lipoxygenase; conditions: cited from earlier work
[10] = molecular target: 12-lipoxygenase; conditions: cited from earlier work
[11] = system: HIT cells; conditions: HIT cells treated with IL-1β for 24 hours; cited from earlier work
[12] = system: leukocyte influx and prostaglandin synthesis; conditions: oral, 3 mg/kg, over a 24 hour period; cited from earlier work
[13] = system: PGE2 production; assay: PGE2 production in islets from C57BL/6 and 12-LO knockout mice; format: cell-based, mouse; conditions: for PGE2 generated by IL-1β stimulated islets: 24 hours
Method: Generation of 12-LO knockout has been previously described. All animal studies were performed in accordance with guidelines set forth by the Research Animal Care Committee of City of Hope National Medical Center. Islet isolation and culturing techniques have been detailed previously. Briefly, mouse pancreas was removed, minced, and poured into a siliconized 25 ml Ehrlenmeyer flask with Type Xl collagenase solution (Sigma Chemical Co, St. Louis, Mo.). The pancreatic digest was incubated in a shaker-type water bath at 37 C. for 6-10 minutes. The digest was centrifuged, poured into a black back petri dish, and islets were picked by hand under a microscope. The islets were aliquoted into sterile 6-well plates (Sarstedt, Newton, N.C.) and cultured in RPMI 1640 medium containing 11 mM glucose and supplemented with 10% FCS and 1% HEPES. Typically, we isolate −75-100 islets per mouse. For PGE2 experiments, 100 islets per well in 300 μl RPMI medium were cultured overnight prior to additions. The following morning the medium was changed to RPMI 1640 medium plus 0.2% BSA and the islets were allowed to equilibrate for one hour. Then, IL-1β (R & D Systems, Minneapolis, Minn.) was added to the appropriate experiments. All islet experiments were run in triplicate and repeated three times for reproducibility.
Isolated islets (100 per experiment) were brought to culture and incubated overnight as described. After approximately 18 hours IL-1β was added to the medium and the islets were incubated for an additional 24 hours. PGE2 production was measured as set forth in Example 3.

Compound: CCCCC/C=C\C[C@@H](O)/C=C/C=C\C/C=C\CCCC(=O)O [12-HETE, 12-hydroxyeicosatetraenoic acid, reference compound]
- COX-2 protein stimulation compared to IL-1β (0.3 ng/ml) [1]: equipotent
- increase in COX-2 protein [1]: 3 fold
- COX-1 mRNA expression / gene transcription [2]: No appreciable difference; also recorded: neither IL-1β,nor 12-HETE stimulated
- increase in PGE2 relative to 15-HETE ([3]; 24 hours): 10 fold
- PGE2 production in conditioned medium [3]: ~1250 pg/mL
- increase in COX-2 mRNA expression [4]: 3 fold

Compound: CCCCC[C@H](O)/C=C/C=C\C/C=C\C/C=C\CCCC(=O)O [15-HETE, 15-hydroxyeicosatetraenoic acid, reference compound]
- PGE2 production in conditioned medium [3]: ~125 pg/mL
- increase in COX-2 mRNA expression [4]: 1.5 fold

Compound: O=C(/C=C/c1ccc(O)c(O)c1)OCCc1ccccc1 [CAPE, caffeic acid phenethyl ester]
- concentration inhibiting COX-2 gene transcription [5]: 35 to 70 µM
- prostaglandin synthesis in rat carrageenan air pouch [6]: inhibited prostaglandin synthesis in a dose-dependent fashion

Compound: N#CC(=Cc1ccc(O)c(O)c1)C(=O)OCC=Cc1ccccc1 [CDC, cinnamamyl-3,4-dihydroxy-α-cyanocinnamate]
- IC50 [7]: 3330 nM
- inhibition of IL-1β induced PGE2 production ([3]; CDC 1 μM (1-10 μM)): completely inhibited; also recorded: statistically significant decrease; also recorded: statistically significant inhibition; also recorded: dose-dependent
- IL-1β induced PGE2 production in presence of CDC ([3]; CDC 1 μM added 60 minutes before IL-1β, 24 hours): 169+5 pg/ml
- effect on IL-1β stimulated increase in COX-2 protein ([8]; CDC 1 μM plus IL-1β): completely inhibited; also recorded: completely eliminated this response
- effect on basal COX-2 protein levels ([8]; CDC alone): did not appreciably affect
- IC50 [9]: 1890 nM
- IC50 [10]: 63 nM

Compound: CS(=O)(=O)Nc1ccc([N+](=O)[O-])cc1OC1CCCCC1 [NS-398]
- glucose-stimulated insulin secretion [11]: partially restored

Compound: CS(=O)(=O)Nc1ccc(Oc2ccc(F)cc2)s1 [RWJ63556]
- inhibition of leukocyte influx [12]: significant sustained inhibition
- inhibition of prostaglandin synthesis [12]: significant sustained inhibition

Compound: interleukin-1β [IL-1β]
- increase in COX-2 protein [1]: 2.5 fold
- PGE2 production upon stimulation with IL-1β (words) ([13]; 12-LO knockout mouse islets): fail to stimulate prostaglandin E2 production
- PGE2 generated by IL-1β stimulated islets ([13]; 12-LO knockout mouse islets): 78+15 pg/ml
- PGE2 production upon stimulation with IL-1β (words) ([13]; 12-LO knockout mouse islets, listed as IL-1 β): no appreciable PGE2 production
- increase in PGE2 production with IL-1β stimulation ([13]; C57BL/6 mouse islets): 8 fold and 7 fold
- PGE2 generated by IL-1β stimulated islets ([13]; C57BL/6 mouse islets): 5405+1012 pg/ml
- COX-1 mRNA expression / gene transcription [2]: neither IL-1β,nor 12-HETE stimulated
- COX-1 mRNA expression / gene transcription ([2]; listed as IL-1 β): No appreciable difference
- PGE2 production in conditioned medium [3]: ~500 pg/ml and 388+27 pg/ml
- increase in COX-2 protein ([8]; IL-1β 0.3 ng/ml): 3 fold
- increase in COX-2 mRNA expression [4]: 2 fold
- increase in COX-2 mRNA expression ([4]; listed as IL-1 β): 2 fold and 1.5 fold
